Literature values, collected in US6987099B2, “Uncomplexed cyclodextrin compositions for odor control” (The Procter & Gamble Company, priority 1997, dated 2006).
Structures can show the parent of a compound that is named as a salt.

SMILES	solubility in water
ClC=CC[N+]12CN3CN(CN(C3)C1)C2.[Cl-] [Dowicil 200, 1-(3-Chlorallyl)-3,5,7-triaza-1-azoniaadamantane chloride]	freely soluble in water
OCCOc1ccccc1 [2-phenoxyethanol]	about 2.67%
[Na+].[O-][n+]1ccccc1[S-] [sodium pyrithione]	about 50%
O=[N+]([O-])C1(Br)COCOC1 [Bronidox L, 5-bromo-5-nitro-1,3-dioxane]	about 0.46%

Further lines, results first:

solubility in water	SMILES
about 1.8%	[H]/N=C(\N/C(=N/[H])NCCCCCCNC(=N)NC(=N)Nc1ccc(Cl)cc1)Nc1ccc(Cl)cc1 [diacetate salt, 1,1′-hexamethylene bis(5-(p-chlorophenyl)biguanide), reference compound]
about 2%	OCCc1ccccc1 [2-phenylethanol]
about 70%	[H]/N=C(\N/C(=N/[H])NCCCCCCNC(=N)NC(=N)Nc1ccc(Cl)cc1)Nc1ccc(Cl)cc1 [digluconate salt, 1,1′-hexamethylene bis(5-(p-chlorophenyl)biguanide), reference compound]
more than 50%	CC1(C)C(=O)N(CO)C(=O)N1CO [DMDM hydantoin, 1,3-bis(hydroxymethyl)-5,5-dimethyl-2,4-imidazolidinedione]
about 4%	OCc1ccccc1 [benzyl alcohol]
about 0.8%	CC(C)(O)C(Cl)(Cl)Cl [chlorobutanol, 1,1,1-Trichloro-2-methylpropan-2-ol]
